Experimental data reported in patent US20210395313A1, “PEPTIDE PAC1 ANTAGONISTS” (AMGEN INC., priority 2017, published 2021).
Where a SMILES comes first, the peptide text is derived from it. Bridges are numbered along the chain shown (N, C = ends).

Target: T1, rat PAC1 receptor (Rattus norvegicus, UniProt P32215)
T1 construct: SHSY-5Y (human neuroblastoma cell line) and RG-2 (rat glioma cell line) cells endogenously express human and rat PAC1 receptors, respectively; endogenous in cells; host or cells: RG-2 rat glioma cells
T1 sequence (P32215 20-523): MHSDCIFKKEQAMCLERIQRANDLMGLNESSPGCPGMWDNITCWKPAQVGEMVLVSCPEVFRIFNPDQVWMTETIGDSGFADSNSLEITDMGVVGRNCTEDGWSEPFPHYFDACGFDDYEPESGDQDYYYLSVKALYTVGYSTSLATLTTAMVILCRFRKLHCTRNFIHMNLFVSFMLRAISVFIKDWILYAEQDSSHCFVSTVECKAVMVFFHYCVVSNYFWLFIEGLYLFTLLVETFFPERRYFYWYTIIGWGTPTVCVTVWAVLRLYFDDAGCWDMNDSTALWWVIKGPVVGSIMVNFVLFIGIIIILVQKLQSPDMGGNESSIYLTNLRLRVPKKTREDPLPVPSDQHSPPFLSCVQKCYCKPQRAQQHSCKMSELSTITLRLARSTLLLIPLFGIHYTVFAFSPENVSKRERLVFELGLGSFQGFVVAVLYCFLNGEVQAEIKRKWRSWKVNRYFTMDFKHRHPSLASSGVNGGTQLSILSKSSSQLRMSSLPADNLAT
Assay: LANCE Ultra cAMP accumulation antagonist assay in RG-2 cells;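 note: RG-2 rat glioma cells endogenously expressing PAC1, test peptide preincubated 30 min, then PAC1 agonist added at its EC80 for 15 min, cAMP accumulation read by LANCE Ultra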
Assay type: cell-based

SMILES | IC50 [nM]
CC[C@H](C)[C@H](NC(=O)[C@H](C)NC(=O)[C@H](CCCCN)NC(=O)[C@H](CCCNC(=N)N)NC(=O)[C@H](Cc1ccccc1)NC(=O)[C@H](CCC(N)=O)NC(=O)[C@@H]1CSSC[C@H](N)C(=O)N[C@@H](CC(=O)O)C(=O)N[C@@H](C)C(=O)N[C@@H]([C@@H](C)O)C(=O)N1)C(=O)N[C@@H](CC(=O)O)C(=O)N[C@@H](CC(=O)O)C(=O)N[C@H]1CSSC[C@@H](C(=O)N[C@@H](CCSC)C(=O)N[C@@H](CCCCN)C(=O)N[C@@H](CCC(N)=O)C(=O)N[C@@H](CCCCN)C(=O)N[C@@H](CCCCN)C(=O)N[C@@H](CCCCN)C(=O)N[C@@H](CCC(=O)O)C(=O)N[C@@H](Cc2ccccc2)C(=O)N[C@@H](CCCCN)C(=O)N[C@@H](C)C(=O)NCC(=O)O)NC(=O)[C@H](C)NC(=O)[C@H](CCCCN)NC(=O)[C@H](Cc2ccccc2)NC(=O)[C@H](C(C)C)NC(=O)[C@H](CO)NC(=O)CNC(=O)[C@@H]2CCCN2C(=O)[C@H](C(C)C)NC(=O)[C@H](CC(N)=O)NC(=O)[C@H](CO)NC(=O)[C@H](Cc2c[nH]cn2)NC(=O)[C@H](Cc2c[nH]cn2)NC(=O)[C@H](C)NC(=O)[C@H](CCC(N)=O)NC(=O)[C@H](CCCCN)NC(=O)[C@H](CCC(N)=O)NC1=O [SEQ ID NO 190] | 0.01 to 1
CC[C@H](C)[C@H](NC(=O)[C@H](C)NC(=O)[C@H](CCCCN)NC(=O)[C@H](CCCNC(=N)N)NC(=O)[C@H](Cc1ccccc1)NC(=O)[C@H](CCC(N)=O)NC(=O)[C@@H]1CSSC[C@H](N)C(=O)N[C@@H](CC(=O)O)C(=O)N[C@@H](C)C(=O)N[C@@H]([C@@H](C)O)C(=O)N1)C(=O)N[C@@H](CC(=O)O)C(=O)N[C@@H](CC(=O)O)C(=O)N[C@H]1CSSC[C@@H](C(=O)N[C@@H](CCSC)C(=O)N[C@@H](CCCCN)C(=O)N[C@@H](CCC(N)=O)C(=O)N[C@@H](CCCCN)C(=O)N[C@@H](CCCCN)C(=O)N[C@@H](CCCCN)C(=O)N[C@@H](CCC(=O)O)C(=O)N[C@@H](Cc2c[nH]c3ccccc23)C(=O)N[C@@H](CCCCN)C(=O)N[C@@H](C)C(=O)NCC(N)=O)NC(=O)[C@H](C)NC(=O)[C@H](CCCCN)NC(=O)[C@H](Cc2ccccc2)NC(=O)[C@H](C(C)C)NC(=O)[C@H](CO)NC(=O)[C@H](C)NC(=O)[C@H](Cc2c[nH]cn2)NC(=O)[C@H](Cc2ccc(O)cc2)NC(=O)[C@H](C)NC(=O)[C@H](CCC(N)=O)NC(=O)[C@H](CCCNC(=N)N)NC(=O)[C@H](C)NC1=O [compound 428] (H-CDATCQFRKAIDDCARQAYHASVFKACMKQKKKEWKAG-NH2; disulfide 1-5, 14-27) | < 0.01
CC[C@H](C)[C@H](NC(=O)[C@H](C)NC(=O)[C@H](CCCCN)NC(=O)[C@H](CCCNC(=N)N)NC(=O)[C@H](Cc1ccccc1)NC(=O)[C@H](CCC(N)=O)NC(=O)[C@@H]1CSSC[C@H](N)C(=O)N[C@@H](CC(=O)O)C(=O)N[C@@H](C)C(=O)N[C@@H]([C@@H](C)O)C(=O)N1)C(=O)N[C@@H](CC(=O)O)C(=O)N[C@@H](CC(=O)O)C(=O)N[C@H]1CSSC[C@@H](C(=O)N[C@@H](CCSC)C(=O)N[C@@H](CCCCN)C(=O)N[C@@H](CCC(N)=O)C(=O)N[C@@H](CCCCN)C(=O)N[C@@H](CCCCN)C(=O)N[C@@H](CCCCN)C(=O)N[C@@H](CCC(=O)O)C(=O)N[C@@H](Cc2c[nH]c3ccccc23)C(=O)N[C@@H](CCCCN)C(=O)N[C@@H](C)C(=O)NCC(N)=O)NC(=O)[C@H](C)NC(=O)[C@H](CCCCN)NC(=O)[C@H](Cc2ccccc2)NC(=O)[C@H](C(C)C)NC(=O)[C@H](CO)NC(=O)[C@H](CC(N)=O)NC(=O)[C@H](CO)NC(=O)[C@H](Cc2c[nH]cn2)NC(=O)[C@H](Cc2ccc(O)cc2)NC(=O)[C@H](C)NC(=O)[C@H](CCC(N)=O)NC(=O)[C@H](CCCNC(=N)N)NC(=O)[C@H](C)NC1=O [compound 429] (H-CDATCQFRKAIDDCARQAYHSNSVFKACMKQKKKEWKAG-NH2; disulfide 1-5, 14-28) | < 0.01
CC[C@H](C)[C@H](NC(=O)[C@H](C)NC(=O)[C@H](CCCCN)NC(=O)[C@H](CCCNC(=N)N)NC(=O)[C@H](Cc1ccccc1)NC(=O)[C@H](CCC(N)=O)NC(=O)[C@@H]1CSSC[C@H](N)C(=O)N[C@@H](CC(=O)O)C(=O)N[C@@H](C)C(=O)N[C@@H]([C@@H](C)O)C(=O)N1)C(=O)N[C@@H](CC(=O)O)C(=O)N[C@@H](CC(=O)O)C(=O)N[C@H]1CSSC[C@@H](C(=O)N[C@@H](CCSC)C(=O)N[C@@H](CCCCN)C(=O)N[C@@H](CCC(N)=O)C(=O)N[C@@H](CCCCN)C(=O)N[C@@H](CCCCN)C(=O)N[C@@H](CCCCN)C(=O)N[C@@H](CCC(=O)O)C(=O)N[C@@H](Cc2c[nH]c3ccccc23)C(=O)N[C@@H](CCCCN)C(=O)N[C@@H](C)C(=O)NCC(N)=O)NC(=O)[C@H](CO)NC(=O)[C@H](CCCCN)NC(=O)[C@H](Cc2ccccc2)NC(=O)[C@H](C(C)C)NC(=O)[C@H](CO)NC(=O)[C@H](CO)NC(=O)[C@H](Cc2c[nH]cn2)NC(=O)[C@H](Cc2ccc(O)cc2)NC(=O)[C@H](C)NC(=O)[C@H](CCC(N)=O)NC(=O)[C@H](CCCNC(=N)N)NC(=O)[C@H](C)NC1=O [compound 430] (H-CDATCQFRKAIDDCARQAYHSSVFKSCMKQKKKEWKAG-NH2; disulfide 1-5, 14-27) | < 0.01
CC[C@H](C)[C@H](NC(=O)[C@H](C)NC(=O)[C@H](CCCCN)NC(=O)[C@H](CCCNC(=N)N)NC(=O)[C@H](Cc1ccccc1)NC(=O)[C@H](CCC(N)=O)NC(=O)[C@@H]1CSSC[C@H](N)C(=O)N[C@@H](CC(=O)O)C(=O)N[C@@H](C)C(=O)N[C@@H]([C@@H](C)O)C(=O)N1)C(=O)N[C@@H](CC(=O)O)C(=O)N[C@@H](CC(=O)O)C(=O)N[C@H]1CSSC[C@@H](C(=O)N[C@@H](CCSC)C(=O)N[C@@H](CCCCN)C(=O)N[C@@H](CCC(N)=O)C(=O)N[C@@H](CCCCN)C(=O)N[C@@H](CCCCN)C(=O)N[C@@H](CCCCN)C(=O)N[C@@H](CCC(=O)O)C(=O)N[C@@H](Cc2c[nH]c3ccccc23)C(=O)N[C@@H](CCCCN)C(=O)N[C@@H](C)C(=O)NCC(N)=O)NC(=O)[C@H](C)NC(=O)[C@H](CCCCN)NC(=O)[C@H](Cc2ccccc2)NC(=O)[C@H](C(C)C)NC(=O)[C@H](CO)NC(=O)[C@H](CO)NC(=O)[C@H](Cc2c[nH]cn2)NC(=O)[C@H](Cc2ccc(O)cc2)NC(=O)[C@H](C)NC(=O)[C@H](CO)NC(=O)[C@H](CCCNC(=N)N)NC(=O)[C@H](C)NC1=O [compound 431] (H-CDATCQFRKAIDDCARSAYHSSVFKACMKQKKKEWKAG-NH2; disulfide 1-5, 14-27) | < 0.01
CC[C@H](C)[C@H](NC(=O)[C@H](C)NC(=O)[C@H](CCCCN)NC(=O)[C@H](CCCNC(=N)N)NC(=O)[C@H](Cc1ccccc1)NC(=O)[C@H](CCC(N)=O)NC(=O)[C@@H]1CSSC[C@H](N)C(=O)N[C@@H](CC(=O)O)C(=O)N[C@@H](C)C(=O)N[C@@H]([C@@H](C)O)C(=O)N1)C(=O)N[C@@H](CC(=O)O)C(=O)N[C@@H](CC(=O)O)C(=O)N[C@H]1CSSC[C@@H](C(=O)N[C@@H](CCSC)C(=O)N[C@@H](CCCCN)C(=O)N[C@@H](CCC(N)=O)C(=O)N[C@@H](CCCCN)C(=O)N[C@@H](CCCCN)C(=O)N[C@@H](CCCCN)C(=O)N[C@@H](CCC(=O)O)C(=O)N[C@@H](Cc2c[nH]c3ccccc23)C(=O)N[C@@H](CCCCN)C(=O)N[C@@H](C)C(=O)NCC(N)=O)NC(=O)[C@H](C)NC(=O)[C@H](CCCCN)NC(=O)[C@H](Cc2ccccc2)NC(=O)[C@H](C(C)C)NC(=O)[C@H](CO)NC(=O)[C@H](CO)NC(=O)[C@H](Cc2c[nH]cn2)NC(=O)[C@H](Cc2ccc(O)cc2)NC(=O)[C@H](CO)NC(=O)[C@H](CCC(N)=O)NC(=O)[C@H](CCCNC(=N)N)NC(=O)[C@H](C)NC1=O [compound 432] (H-CDATCQFRKAIDDCARQSYHSSVFKACMKQKKKEWKAG-NH2; disulfide 1-5, 14-27) | < 0.01
CC[C@H](C)[C@H](NC(=O)[C@H](C)NC(=O)[C@H](CCCCN)NC(=O)[C@H](CCCNC(=N)N)NC(=O)[C@H](Cc1ccccc1)NC(=O)[C@H](CCC(N)=O)NC(=O)[C@@H]1CSSC[C@H](N)C(=O)N[C@@H](CC(=O)O)C(=O)N[C@@H](C)C(=O)N[C@@H]([C@@H](C)O)C(=O)N1)C(=O)N[C@@H](CC(=O)O)C(=O)N[C@@H](CC(=O)O)C(=O)N[C@H]1CSSC[C@@H](C(=O)N[C@@H](CCSC)C(=O)N[C@@H](CCCCN)C(=O)N[C@@H](CCC(N)=O)C(=O)N[C@@H](CCCCN)C(=O)N[C@@H](CCCCN)C(=O)N[C@@H](CCCCN)C(=O)N[C@@H](CCC(=O)O)C(=O)N[C@@H](Cc2c[nH]c3ccccc23)C(=O)N[C@@H](CCCCN)C(=O)N[C@@H](C)C(=O)NCC(N)=O)NC(=O)[C@H](C)NC(=O)[C@H](CCCCN)NC(=O)[C@H](Cc2ccccc2)NC(=O)[C@H](C(C)C)NC(=O)[C@H](CO)NC(=O)[C@H](CO)NC(=O)[C@H](Cc2c[nH]cn2)NC(=O)[C@H](CO)NC(=O)[C@H](C)NC(=O)[C@H](CCC(N)=O)NC(=O)[C@H](CCCNC(=N)N)NC(=O)[C@H](C)NC1=O [compound 433] (H-CDATCQFRKAIDDCARQASHSSVFKACMKQKKKEWKAG-NH2; disulfide 1-5, 14-27) | < 0.01
